# Values of other authors in patent US20080233144A1, “Use of the Mushroom Agaricus Blazei Murill for the Production of Medicaments Suitable for Treating Infections and Allergies” (priority 2004, published 2008).
# Tested on: Streptococcus pneumoniae serotype 6B
# Conditions: previous experiments
substance,measurement,value
β-glucan,effect in the pneumococcus infection model when given via gavage,did not have any effect
